Experimental data: patent US11459306B2, “Compounds, compositions, and methods for treating T-cell acute lymphoblastic leukemia” (The Trustees of Columbia University in the City of New York, priority 2017, dated 2022)

Tests used:
T-ALL = assay: Tumor burden and survival of mice with T-ALL; format: in vivo
[1] = system: mouse PTEN null/NOTCH activated T-ALL cell line; assay: Gene set enrichment analysis of murine T-ALL disease signature after drug treatment; format: cell-based; conditions: GSEA of T-ALL disease signature
Procedure: This was also accomplished by generating gene expression signatures to assess the effects of drug treatment. Global gene expression profiles were obtained in triplicate using a mouse PTEN null/NOTCH activated T-ALL cell line driven by over expression of the transcription factor LMO2. […] Tumor cells were cultured in the presence of CAL-130 (2.5 μM) or the gamma-secretase inhibitor (GSI) Compound E (1 μM). Compound E blocks the activity of NOTCH1, which is also believed to support T-ALL tumor formation, proliferation, and survival. Drug treated cells were harvested at time points known to affect the expression of the proto-oncogene cMyc (12 hours and 48 hours, respectively), a master regulator of cell growth, metabolism and survival. A Venn diagram was created to illustrate the overlap in genes altered by either PI3Kγ/δ blockade (red circle) or GSI (green circle) using a false discovery rate (FDR) of 0.0005 as cut off (FIG. 1A). Of note, ten-fold more genes were affected following PI3Kγ/δ blockade, including the majority (˜62%) of genes altered by GSI monotherapy, a highly significant finding (Fisher's exact test, P<2.2×10^−16).
A murine T-ALL disease signature was further defined by ranking all genes based on their differential expression in T-ALL samples compared to wild type murine thymocytes. […]

[2] = system: human primary T-ALL cells; assay: Akt phosphorylation and pro-apoptotic pathways in human primary T-ALL cells; format: cell-based
PIK3CA (PI3Kα) = molecular target: T1, PIK3CA (PI3Kα) (Homo sapiens, UniProt P42336); assay: KINOMEscan competition binding assay (DiscoverX); conditions: DiscoveRx gene symbol PIK3CA (PI3Kα)
T1 construct: purchased DiscoverX (KINOMEscan); host or cells: E. coli BL21-derived host (T7 phage) or HEK-293
Procedure: (§1) The compounds were tested using KINOMEscan™ (DiscoverX), which is based on a competition binding assay that quantitatively measures the ability of a compound to compete with an immobilized, active-site directed ligand. The assay is performed by combining three components: DNA-tagged kinase; immobilized ligand; and a test compound. The ability of the test compound to compete with the immobilized ligand is measured via quantitative PCR of the DNA tag.
(§2) For most assays, kinase-tagged T7 phage strains were prepared in an E. coli host derived from the BL21 strain. E. coli were grown to log-phase and infected with T7 phage and incubated with shaking at 32° C. until lysis. The lysates were centrifuged and filtered to remove cell debris. The remaining kinases were produced in HEK-293 cells and subsequently tagged with DNA for qPCR detection. Streptavidin-coated magnetic beads were treated with biotinylated small molecule ligands for 30 minutes at room temperature to generate affinity resins for kinase assays. The liganded beads were blocked with excess biotin and washed with blocking buffer (SeaBlock (Pierce), 1% BSA, 0.05% Tween 20, 1 mM DTT) to remove unbound ligand and to reduce non-specific binding. Binding reactions were assembled by combining kinases, liganded affinity beads, and test compounds in 1× binding buffer (20% SeaBlock, 0.17×PBS, 0.05% Tween 20, 6 mM DTT). Test compounds were prepared as 111× stocks in 100% DMSO. Kds were determined using an 11-point 3-fold compound dilution series with three DMSO control points. All compounds for Kd measurements are distributed by acoustic transfer (non-contact dispensing) in 100% DMSO. The compounds were then diluted directly into the assays such that the final concentration of DMSO was 0.9%. All reactions performed in polypropylene 384-well plate. Each was a final volume of 0.02 ml. The assay plates were incubated at room temperature with shaking for 1 hour and the affinity beads were washed with wash buffer (1×PBS, 0.05% Tween 20). The beads were then re-suspended in elution buffer (1×PBS, 0.05% Tween 20, 0.5 μM non-biotinylated affinity ligand) and incubated at room temperature with shaking for 30 minutes. The kinase concentration in the eluates was measured by qPCR.
(§3) An 11-point 3-fold serial dilution of each test compound was prepared in 100% DMSO at 100× final test concentration and subsequently diluted to 1× in the assay (final DMSO concentration=1%). Most Kds were determined using a compound top concentration=30,000 nM. If the initial Kd determined was <0.5 nM (the lowest concentration tested), the measurement was repeated with a serial dilution starting at a lower top concentration.
(§4) Binding constants (Kds) were calculated with a standard dose-response curve using the Hill equation: […]
(§5) The Hill Slope was set to −1. Curves were fitted using a non-linear least square fit with the Levenberg-Marquardt algorithm.

PIK3CB (PI3Kβ) = molecular target: T2, PIK3CB (PI3Kβ) (Homo sapiens, UniProt P42338); assay: KINOMEscan competition binding assay (DiscoverX); conditions: DiscoveRx gene symbol PIK3CB (PI3Kβ)
T2 construct: purchased DiscoverX (KINOMEscan); host or cells: E. coli BL21-derived host (T7 phage) or HEK-293
Procedure: as §1, §2, §3, §4, §5

PIK3CD = molecular target: T3, PIK3CD (Homo sapiens, UniProt O00329); assay: KINOMEscan competition binding assay (DiscoverX); conditions: DiscoveRx gene symbol PIK3CD (b251 prints: PI3Kγ)
T3 construct: purchased DiscoverX (KINOMEscan); host or cells: E. coli BL21-derived host (T7 phage) or HEK-293
T3 sequence (O00329 1-1044): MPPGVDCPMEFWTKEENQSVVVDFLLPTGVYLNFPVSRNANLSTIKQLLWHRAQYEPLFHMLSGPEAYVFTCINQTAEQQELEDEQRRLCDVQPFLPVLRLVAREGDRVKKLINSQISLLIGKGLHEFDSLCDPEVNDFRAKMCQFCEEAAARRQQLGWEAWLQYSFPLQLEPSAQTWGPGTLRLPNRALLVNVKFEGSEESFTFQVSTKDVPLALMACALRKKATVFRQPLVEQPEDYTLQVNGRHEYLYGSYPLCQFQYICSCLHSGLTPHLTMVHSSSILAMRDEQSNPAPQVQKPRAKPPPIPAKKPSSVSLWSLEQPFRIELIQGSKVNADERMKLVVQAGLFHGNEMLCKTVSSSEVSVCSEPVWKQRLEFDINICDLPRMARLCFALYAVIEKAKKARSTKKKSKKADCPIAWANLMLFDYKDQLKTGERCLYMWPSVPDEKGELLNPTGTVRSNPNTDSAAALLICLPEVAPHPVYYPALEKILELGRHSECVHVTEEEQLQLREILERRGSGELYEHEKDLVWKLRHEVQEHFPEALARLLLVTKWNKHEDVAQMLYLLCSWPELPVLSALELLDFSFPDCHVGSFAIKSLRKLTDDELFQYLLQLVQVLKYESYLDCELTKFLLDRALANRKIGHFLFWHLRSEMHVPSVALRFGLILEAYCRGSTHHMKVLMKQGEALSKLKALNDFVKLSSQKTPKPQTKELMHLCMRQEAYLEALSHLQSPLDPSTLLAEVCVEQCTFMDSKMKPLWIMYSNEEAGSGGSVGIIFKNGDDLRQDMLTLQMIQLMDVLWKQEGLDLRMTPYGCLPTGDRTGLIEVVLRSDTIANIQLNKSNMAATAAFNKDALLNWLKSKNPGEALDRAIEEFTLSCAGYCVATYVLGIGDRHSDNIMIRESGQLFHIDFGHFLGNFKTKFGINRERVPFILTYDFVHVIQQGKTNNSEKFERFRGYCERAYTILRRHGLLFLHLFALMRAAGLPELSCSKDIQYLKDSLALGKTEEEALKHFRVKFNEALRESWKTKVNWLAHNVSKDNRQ
Procedure: as §1, §2, §3, §4, §5

PIK3CG = molecular target: T4, PIK3CG (Homo sapiens, UniProt P48736); assay: KINOMEscan competition binding assay (DiscoverX); conditions: DiscoveRx gene symbol PIK3CG (b251 prints: PI3Kδ)
T4 construct: purchased DiscoverX (KINOMEscan); host or cells: E. coli BL21-derived host (T7 phage) or HEK-293
Procedure: as §1, §2, §3, §4, §5

T-ALL cell line = assay: T-ALL cell viability / cell death; format: cell-based, murine
Procedure: Compounds DWL-PI3K-1, DWL-PI3K-2, DWL-PI3K-3, DWL-PI3K-4, DWL-PI3K-5, DWL-PI3K-6 and DWL-PI3K-7, and reference compounds CAL-130, tenalisib, duvelisib were evaluated for efficacy (cell viability by measuring ATP (CellTiter-Glo) or propidium iodide (PI) uptake) against a number of cancer cells, including LMO-2-007, OCI-LY-10, HH, H9, PF382 and CCRF-CEM.

[3] = Pharmacokinetics relative to CAL-130; format: in vivo
[4] = system: murine PTEN null T-ALL cell line lacking both p110γ and p110δ catalytic domains; assay: Killing of T-ALL cell line lacking p110γ and p110δ; format: cell-based; conditions: selectivity control line
Text: Compounds described herein also appear to be selective for p110 catalytic domains of PI3Kγ and PI3Kδ as treatment, for example, of a T-ALL cell line lacking these two p110 isoforms results in limited cell killing.

T4 sequence (P48736 whole entry): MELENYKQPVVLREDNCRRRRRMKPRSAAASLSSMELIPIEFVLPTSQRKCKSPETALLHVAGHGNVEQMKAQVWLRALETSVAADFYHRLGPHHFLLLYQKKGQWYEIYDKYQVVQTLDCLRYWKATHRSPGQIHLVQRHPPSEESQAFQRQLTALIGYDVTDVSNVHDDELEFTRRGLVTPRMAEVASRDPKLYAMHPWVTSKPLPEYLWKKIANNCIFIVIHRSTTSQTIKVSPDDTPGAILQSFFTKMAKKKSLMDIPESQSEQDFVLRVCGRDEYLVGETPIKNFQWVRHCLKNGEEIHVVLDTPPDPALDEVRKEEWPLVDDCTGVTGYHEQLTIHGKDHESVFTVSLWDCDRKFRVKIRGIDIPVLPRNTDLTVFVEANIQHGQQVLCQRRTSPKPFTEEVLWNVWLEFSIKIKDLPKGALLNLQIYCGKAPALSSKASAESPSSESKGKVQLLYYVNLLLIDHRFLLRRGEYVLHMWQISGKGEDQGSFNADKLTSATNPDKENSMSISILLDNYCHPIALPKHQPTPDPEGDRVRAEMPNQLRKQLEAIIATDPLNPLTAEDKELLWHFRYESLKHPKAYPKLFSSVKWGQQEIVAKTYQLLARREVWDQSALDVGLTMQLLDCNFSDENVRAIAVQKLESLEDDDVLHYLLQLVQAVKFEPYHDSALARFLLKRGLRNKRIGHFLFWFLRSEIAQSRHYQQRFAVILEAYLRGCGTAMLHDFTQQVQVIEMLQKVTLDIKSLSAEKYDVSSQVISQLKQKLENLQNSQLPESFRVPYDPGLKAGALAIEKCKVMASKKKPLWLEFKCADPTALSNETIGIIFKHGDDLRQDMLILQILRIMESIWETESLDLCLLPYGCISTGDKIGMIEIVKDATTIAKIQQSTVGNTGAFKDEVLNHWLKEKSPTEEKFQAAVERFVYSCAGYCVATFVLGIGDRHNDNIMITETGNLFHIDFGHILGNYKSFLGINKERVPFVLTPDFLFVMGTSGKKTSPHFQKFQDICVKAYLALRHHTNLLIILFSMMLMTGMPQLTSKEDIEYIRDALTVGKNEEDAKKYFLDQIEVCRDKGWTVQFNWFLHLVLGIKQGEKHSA
T1 sequence (P42336 whole entry): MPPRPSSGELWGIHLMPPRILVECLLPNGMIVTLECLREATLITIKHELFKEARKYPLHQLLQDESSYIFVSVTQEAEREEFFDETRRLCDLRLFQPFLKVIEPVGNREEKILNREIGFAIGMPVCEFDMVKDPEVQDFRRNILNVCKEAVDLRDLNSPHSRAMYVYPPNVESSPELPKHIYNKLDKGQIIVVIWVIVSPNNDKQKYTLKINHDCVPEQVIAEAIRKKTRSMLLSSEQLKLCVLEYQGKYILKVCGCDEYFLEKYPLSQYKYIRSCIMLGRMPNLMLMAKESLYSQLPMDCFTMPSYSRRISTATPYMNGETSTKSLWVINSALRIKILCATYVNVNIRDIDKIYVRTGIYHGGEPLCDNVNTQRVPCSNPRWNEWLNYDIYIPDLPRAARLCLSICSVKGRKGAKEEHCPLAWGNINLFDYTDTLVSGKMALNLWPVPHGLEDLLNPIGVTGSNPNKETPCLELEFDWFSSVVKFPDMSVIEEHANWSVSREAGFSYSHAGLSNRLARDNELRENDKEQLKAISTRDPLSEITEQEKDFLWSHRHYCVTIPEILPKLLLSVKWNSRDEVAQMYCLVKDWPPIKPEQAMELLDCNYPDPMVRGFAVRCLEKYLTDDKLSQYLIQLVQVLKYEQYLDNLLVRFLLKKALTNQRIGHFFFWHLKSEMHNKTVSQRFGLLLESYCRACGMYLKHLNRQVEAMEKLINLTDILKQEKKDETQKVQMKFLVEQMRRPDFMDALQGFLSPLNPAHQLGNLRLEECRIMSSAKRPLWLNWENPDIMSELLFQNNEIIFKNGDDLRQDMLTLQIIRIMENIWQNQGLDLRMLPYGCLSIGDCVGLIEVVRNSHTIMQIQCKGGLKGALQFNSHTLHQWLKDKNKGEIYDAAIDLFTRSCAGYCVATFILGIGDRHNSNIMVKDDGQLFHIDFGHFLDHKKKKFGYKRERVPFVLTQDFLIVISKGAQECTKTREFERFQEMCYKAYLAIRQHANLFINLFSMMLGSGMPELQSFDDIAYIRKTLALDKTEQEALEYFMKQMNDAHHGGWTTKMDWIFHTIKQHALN
T2 sequence (P42338 whole entry): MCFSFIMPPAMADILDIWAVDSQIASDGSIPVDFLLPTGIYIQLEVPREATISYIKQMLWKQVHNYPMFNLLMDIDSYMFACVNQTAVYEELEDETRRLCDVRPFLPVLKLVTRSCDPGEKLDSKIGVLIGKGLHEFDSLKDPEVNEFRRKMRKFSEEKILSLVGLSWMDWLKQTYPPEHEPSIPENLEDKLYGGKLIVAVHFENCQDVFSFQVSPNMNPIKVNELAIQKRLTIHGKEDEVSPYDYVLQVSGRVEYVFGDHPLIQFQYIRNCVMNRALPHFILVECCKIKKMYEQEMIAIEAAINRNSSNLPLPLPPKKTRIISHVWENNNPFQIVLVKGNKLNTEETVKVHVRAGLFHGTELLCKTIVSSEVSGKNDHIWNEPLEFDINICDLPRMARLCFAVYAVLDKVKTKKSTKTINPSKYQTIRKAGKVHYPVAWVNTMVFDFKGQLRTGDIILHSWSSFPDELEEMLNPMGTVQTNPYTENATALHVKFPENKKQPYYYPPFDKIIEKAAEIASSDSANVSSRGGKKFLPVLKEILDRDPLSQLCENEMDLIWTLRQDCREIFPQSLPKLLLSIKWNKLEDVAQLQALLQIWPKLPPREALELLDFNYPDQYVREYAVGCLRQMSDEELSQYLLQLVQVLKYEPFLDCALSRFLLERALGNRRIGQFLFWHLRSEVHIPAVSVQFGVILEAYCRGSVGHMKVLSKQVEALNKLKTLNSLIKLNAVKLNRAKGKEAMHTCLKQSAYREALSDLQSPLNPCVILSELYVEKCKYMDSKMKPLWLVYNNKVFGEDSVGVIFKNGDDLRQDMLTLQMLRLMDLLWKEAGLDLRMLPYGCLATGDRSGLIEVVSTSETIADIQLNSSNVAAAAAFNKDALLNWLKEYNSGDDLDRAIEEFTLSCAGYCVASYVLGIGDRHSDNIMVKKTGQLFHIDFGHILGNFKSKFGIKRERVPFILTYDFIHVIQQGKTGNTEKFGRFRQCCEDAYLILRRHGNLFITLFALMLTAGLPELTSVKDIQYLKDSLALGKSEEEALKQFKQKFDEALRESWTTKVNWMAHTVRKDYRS

Row | Structure (SMILES) | effect on tumor burden and survival (T-ALL) | mean survival (T-ALL; 10 mg/kg tid) | normalized enrichment score (NES) ([1]; 2.5 μM, 12 hours) | Akt phosphorylation and pro-apoptotic pathways [2] | normalized enrichment score (NES) ([1]; 1 μM, 48 hours) | Kd (PIK3CA (PI3Kα)) | Kd (PIK3CB (PI3Kβ)) | Kd (PIK3CD) | Kd (PIK3CG) | amount needed relative to CAL-130 to achieve a similar reduction in tumor cell survival (T-ALL cell line) | pharmacokinetics [3] | efficacy in inducing T-ALL cell death relative to CAL-130 (T-ALL cell line; cultured T-ALL cells) | cell killing of T-ALL cell line lacking p110γ and p110δ [4] | mean survival (T-ALL; 30 mg/kg tid)
1 | Cc1ccccc1-n1c([C@H](C)Nc2nc(N)nc3[nH]cnc23)nc2cccc(C)c2c1=O [CAL-130] | significantly reduced tumor burden and prolonged survival of diseased mice | 45 days | −5.8 | abolished Akt phosphorylation and activated pro-apoptotic pathways | – | – | – | – | – | – | – | – | – | –
2 | C[C@H](NC(=O)Cc1cc(F)cc(F)c1)C(=O)N[C@H]1N=C(c2ccccc2)c2ccccc2N(C)C1=O [Compound E] | – | – | – | – | −2.6 | – | – | – | – | – | – | – | – | –
3 | Cc1ccccc1-n1c([C@H](C)Nc2nc(N)nc(N)c2C#N)nc2cccc(C)c2c1=O [DWL-PI3K-1, (S)-2,4-diamino-6-((1-(5-methyl-4-oxo-3-(o-tolyl)-3,4-dihydroquinazolin-2-yl)ethyl)amino)pyrimidine-5-carbonitrile] | – | – | – | – | – | 20 nM | 0.92 nM | 0.39 nM | 0.2 nM | about 10 fold less | better pharmacokinetics | – | – | –
4 | Cc1ccccc1-n1c([C@H](C)Nc2nc(N)nc(C)c2C#N)nc2cccc(C)c2c1=O [DWL-PI3K-2, (S)-2-amino-4-methyl-6-((1-(5-methyl-4-oxo-3-(o-tolyl)-3,4-dihydroquinazolin-2-yl)ethyl)amino)pyrimidine-5-carbonitrile] | – | – | – | – | – | 53 nM | 4.3 nM | 0.62 nM | 0.62 nM | about 10 fold less | better pharmacokinetics | – | – | –
5 | Cc1nc(N)nc(N[C@@H](C)c2cc3cccc(Cl)c3c(=O)n2-c2ccccc2)c1C#N [DWL-PI3K-4, (S)-2-amino-4-((1-(8-chloro-1-oxo-2-phenyl-1,2-dihydroisoquinolin-3-yl)ethyl)amino)-6-methylpyrimidine-5-carbonitrile] | – | – | – | – | – | 2.2 nM | 0.15 nM | 0.042 nM | 0.089 nM | about 10 fold less | better pharmacokinetics | greater efficacy than CAL-130 | limited killing | –
6 | C[C@H](Nc1nc(N)nc(N)c1C#N)c1cc2cccc(Cl)c2c(=O)n1-c1cc(F)cc(F)c1 [DWL-PI3K-5, (S)-2,4-diamino-6-(1-(8-chloro-2-(3,5-difluorophenyl)-1-oxo-1,2-dihydroisoquinolin-3-yl)ethylamino)pyrimidine-5-carbonitrile] | – | – | – | – | – | 30 nM | 1.4 nM | 0.12 nM | 0.38 nM | about 10 fold less | better pharmacokinetics | – | – | –
7 | C[C@H](Nc1nc(N)nc(N)c1C#N)c1cc2cccc(Cl)c2c(=O)n1-c1cccc(F)c1 [DWL-PI3K-6, (S)-2,4-diamino-6-((1-(8-chloro-2-(3-fluorophenyl)-1-oxo-1,2-dihydroisoquinolin-3-yl)ethyl)amino)pyrimidine-5-carbonitrile] | – | – | – | – | – | 10 nM | 0.46 nM | 0.11 nM | 0.27 nM | about 10 fold less | better pharmacokinetics | – | – | –
8 | [2H]c1c([2H])c([2H])c(-n2c([C@H](C)Nc3nc(N)nc(N)c3C#N)cc3cccc(Cl)c3c2=O)c([2H])c1[2H] [DWL-PI3K-7, (S)-2,4-diamino-6-((1-(8-chloro-1-oxo-2-(phenyl-d5)-1,2-dihydroisoquinolin-3-yl)ethyl)amino)pyrimidine-5-carbonitrile] | – | – | – | – | – | 6.1 nM | 0.3 nM | 0.12 nM | 0.17 nM | about 10 fold less | better pharmacokinetics | – | limited killing effect | –
9 | C[C@H](Nc1ncnc2nc[nH]c12)c1cc2cccc(Cl)c2c(=O)n1-c1ccccc1 [IPI-145] | not as effective in reducing tumor burden or in prolonging overall survival | – | – | – | – | – | – | – | – | – | – | – | – | 18 days
